The source of these data is patent US9828339B2, “Biphenyl derivatives and methods for preparing same” (DONG-A ST CO., LTD, priority 2013, dated 2017).

The assay concerns the target human muscarinic M3 receptor (Homo sapiens (Human), UniProt P20309). Put plainly: Binding assay on human muscarinic M3 receptor ([3H]-methyl scopolamine displacement). As to conditions: membranes overexpressing human M3 receptor, Ki from IC50 by Cheng-Prusoff, read-out: Binding Affinity to M3 Receptor, Ki. The procedure:
[Experimental Example 1] Binding Assay on Human Muscarinic M3 Receptor
Cell membrane proteins (Perkin Elmer) wherein human muscarinic M3 receptor was overexpressed, [^3H]-methyl scopolamine and test compounds in various concentration were cultured in 0.2 ml of Tris-HCl buffer at 25° C. for 120 minutes. The same was filtered under suction through glass fiber filter (Whatman GF/B), and then the filter was washed 5 times with 1 ml of Tris-HCl buffer. The radioactivity of [^3H]-methyl scopolamine adsorbed on the filter was measured by a liquid scintillation counter. Non-specific binding was evaluated under existence of 5 μM of atropine. Affinity of the compound of the present invention to muscarinic M3 receptor was calculated as the dissociation constant (Ki), which can be calculated from concentration (IC50) of test compounds inhibiting 50% of binding of [^3H]-methyl scopolamine (i.e. labeled ligand) according to Cheng and Prusoff [Cheng and Prusoff, Biochem. Pharmacol., 22, 3099, 1973].

Chain of human muscarinic M3 receptor (P20309 whole entry): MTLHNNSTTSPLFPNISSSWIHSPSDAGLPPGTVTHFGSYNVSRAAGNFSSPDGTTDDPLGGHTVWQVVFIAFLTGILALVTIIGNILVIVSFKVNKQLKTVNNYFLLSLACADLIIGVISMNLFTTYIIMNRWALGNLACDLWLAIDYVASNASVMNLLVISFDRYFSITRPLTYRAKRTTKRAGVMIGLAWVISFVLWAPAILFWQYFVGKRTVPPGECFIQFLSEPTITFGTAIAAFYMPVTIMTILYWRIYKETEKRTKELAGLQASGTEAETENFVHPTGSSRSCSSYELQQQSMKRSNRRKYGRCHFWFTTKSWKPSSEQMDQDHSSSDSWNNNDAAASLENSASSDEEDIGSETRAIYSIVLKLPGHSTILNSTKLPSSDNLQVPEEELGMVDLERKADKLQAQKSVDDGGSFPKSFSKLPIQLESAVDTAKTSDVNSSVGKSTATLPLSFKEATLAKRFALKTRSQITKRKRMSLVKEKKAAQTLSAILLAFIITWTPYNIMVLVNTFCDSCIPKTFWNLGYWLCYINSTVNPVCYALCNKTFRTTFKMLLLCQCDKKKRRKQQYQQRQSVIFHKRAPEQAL

What is called Ki is a measure of affinity in units of concentration, obtained from inhibition or displacement. As to `COc1ccc(NC(=O)OCCC2CCCN2C)c(-c2cccc(F)c2)c1` (centres unmarked) [Example 61, 2-(1-methylpyrrolidin-2-yl)ethyl(3′-fluoro-5-methoxy-[1,1′-biphenyl]-2-yl)carbamate], the Ki amounted to 218 nM. In the case of `COc1ccc(NC(=O)OCCC2CCCN2C)c(-c2cc(F)cc(F)c2)c1` (centres unmarked) [Example 62, 2-(1-Methylpyrrolidin-2-yl)ethyl(3′,5′-difluoro-5-methoxy-[1,1′-biphenyl]-2-yl)carbamate] it was above 1000 nM. Take `COc1ccc(NC(=O)OCCC2CCCN2C)c(-c2cccc(Cl)c2)c1` (centres unmarked) [Example 63, 2-(1-methylpyrrolidin-2-yl)ethyl(3′-chloro-5-methoxy-[1,1′-biphenyl]-2-yl)carbamate]: the Ki is 58.1 nM. In the case of `COc1ccc(NC(=O)OCCC2CCCN2C)c(-c2cc(Cl)cc(Cl)c2)c1` (centres unmarked) [Example 64, 2-(1-Methylpyrrolidin-2-yl)ethyl(3′,5′-dichloro-5-methoxy-[1,1′-biphenyl]-2-yl)carbamate] it was above 1000 nM; in that of `COc1ccc(NC(=O)OCCC2CCCN2C)c(-c2ccc(F)c(Cl)c2)c1` (centres unmarked) [Example 65, 2-(1-Methylpyrrolidin-2-yl)ethyl (3′-chloro-4′-fluoro-5-methoxy-[1,1′-biphenyl]-2-yl)carbamate], 71.3 nM. In the case of `CN1CCCC1CCOC(=O)Nc1ccc(Cl)cc1-c1cc(F)cc(F)c1` (centres unmarked) [Example 69, 2-(1-Methylpyrrolidin-2-yl)ethyl(5-chloro-3′,5′-difluoro-[1,1′-biphenyl]-2-yl)carbamate] it was 109 nM; in that of `CN1CCCC1CCOC(=O)Nc1ccc(Cl)cc1-c1cc(Cl)cc(Cl)c1` (centres unmarked) [Example 71, 2-(1-Methylpyrrolidin-2-yl)ethyl (3′,5,5′-trichloro-[1,1′-biphenyl]-2-yl)carbamate], 134 nM. Under `CN1CCCC1CCOC(=O)Nc1ccc(Cl)cc1-c1cc(F)cc(Cl)c1` (centres unmarked) [Example 72, 2-(1-Methylpyrrolidin-2-yl)ethyl (3′,5-dichloro-5′-fluoro-[1,1′-biphenyl]-2-yl)carbamate] stands 58.8 nM; under `CN1CC[C@@H](COC(=O)Nc2ccccc2-c2ccc(C=O)c(F)c2)C1` [Example 74, (R)-(1-methylpyrrolidin-3-yl)methyl (3′-fluoro-4′-formyl-[1,1′-biphenyl]-2-yl)carbamate], above 1000 nM. Take `CN1CCCC1CCOC(=O)Nc1ccc(O)cc1-c1cc(F)cc(F)c1` (centres unmarked) [Example 75, 2-(1-methylpyrrolidin-2-yl)ethyl (3′,5′-difluoro-5-hydroxy-[1,1′-biphenyl]-2-yl)carbamate]: the Ki turned out to be 471 nM. In the case of `CN1CCCC1CCOC(=O)Nc1ccc(O)cc1-c1cc(Cl)cc(Cl)c1` (centres unmarked) [Example 76, 2-(1-methylpyrrolidin-2-yl)ethyl (3′,5′-dichloro-5-hydroxy-[1,1′-biphenyl]-2-yl)carbamate] it was above 1000 nM; in that of `O=C(Nc1ccccc1-c1cc(F)cc(F)c1)OC[C@@H]1CCNC1` [Example 80, (R)-pyrrolidin-3-ylmethyl-(3′,5′-difluoro-[1,1′-biphenyl]-2-yl)carbamate], 27.4 nM; in that of `O=C(Nc1ccccc1-c1cc(F)cc(F)c1)OC[C@H]1CCNC1` [Example 81, (S)-pyrrolidin-3-ylmethyl-(3′,5′-difluoro-[1,1′-biphenyl]-2-yl)carbamate], 30.4 nM. Turning to `O=C(Nc1ccc(F)cc1-c1ccccc1)OC[C@H]1CCNC1` [Example 82, (S)-pyrrolidin-3-ylmethyl-(5-fluoro-[1,1′-biphenyl]-2-yl)carbamate], the Ki amounted to 18.9 nM. As for `Cc1cccc(-c2cc(F)ccc2NC(=O)OC[C@H]2CCNC2)c1` [Example 83, (S)-pyrrolidin-3-ylmethyl (5-fluoro-3′-methyl-[1,1′-biphenyl]-2-yl)carbamate], the Ki is 18.3 nM.

In the case of `O=C(Nc1ccc(F)cc1-c1cc(F)cc(F)c1)OC[C@@H]1CCNC1` [Example 84, (R)-pyrrolidin-3-ylmethyl (3′,5,5′-trifluoro-[1,1′-biphenyl]-2-yl)carbamate], the Ki is 34.9 nM. Under `Cc1ccc(NC(=O)OC[C@@H]2CCNC2)c(-c2ccccc2)c1` [Example 86, (R)-pyrrolidin-3-ylmethyl (5-methyl-[1,1′-biphenyl]-2-yl)carbamate] stands 111 nM; under `Cc1ccc(NC(=O)OC[C@@H]2CCNC2)c(-c2cccc(F)c2)c1` [Example 87, (R)-pyrrolidin-3-ylmethyl (3′-fluoro-5-methyl-[1,1′-biphenyl]-2-yl)carbamate], 94.4 nM; under `CN1CC[C@H](COC(=O)Nc2ccccc2-c2cc(F)cc(F)c2)C1` [Example 92, (S)-(1-methylpyrrolidin-3-yl)methyl (3′,5′-difluoro-[1,1′-biphenyl]-2-yl)carbamate], 10.7 nM. Under `Cc1cccc(-c2cc(F)ccc2NC(=O)OC[C@H]2CCN(C)C2)c1` [Example 94, (S)-(1-methylpyrrolidin-3-yl)methyl (5-fluoro-3′-methyl-[1,1′-biphenyl]-2-yl)carbamate] stands 6.18 nM; under `CN1CC[C@H](COC(=O)Nc2ccc(F)cc2-c2cc(F)cc(F)c2)C1` [Example 96, (S)-(1-methylpyrrolidin-3-yl)methyl (3′,5,5′-trifluoro-[1,1′-biphenyl]-2-yl)carbamate], 17.6 nM; under `Cc1ccc(NC(=O)OC[C@@H]2CCN(C)C2)c(-c2ccccc2)c1` [Example 97, (R)-(1-methylpyrrolidin-3-yl)methyl (5-methyl-[1,1′-biphenyl]-2-yl)carbamate], 35.2 nM. Under `Cc1ccc(NC(=O)OC[C@@H]2CCN(C)C2)c(-c2cccc(F)c2)c1` [Example 98, (R)-(1-methylpyrrolidin-3-yl)methyl (3′-fluoro-5-methyl-[1,1′-biphenyl]-2-yl)carbamate] stands 46.2 nM; under `CCN1CC[C@@H](COC(=O)Nc2ccccc2-c2ccccc2)C1` [Example 102, (R)-(1-ethylpyrrolidin-3-yl)methyl [1,1′-biphenyl]-2-ylcarbamate], 12.9 nM; under `CCN1CC[C@H](COC(=O)Nc2ccccc2-c2ccccc2)C1` [Example 103, (S)-(1-ethylpyrrolidin-3-yl)methyl [1,1′-biphenyl]-2-ylcarbamate], 13 nM. Turning to `CCN1CC[C@@H](COC(=O)Nc2ccccc2-c2cccc(C)c2)C1` [Example 104, (R)-(1-ethylpyrrolidin-3-yl)methyl (3′-methyl-[1,1′-biphenyl]-2-yl)carbamate], the Ki stood at 14.2 nM. For the compound `CCN1CC[C@H](COC(=O)Nc2ccccc2-c2cccc(C)c2)C1` [Example 105, (S)-(1-ethylpyrrolidin-3-yl)methyl (3′-methyl-[1,1′-biphenyl]-2-yl)carbamate], the Ki was 19.6 nM.

As for `CC(C)CN1CCC[C@H]1COC(=O)Nc1ccccc1-c1ccccc1` [Example 107, (S)-(1-isobutylpyrrolidin-2-yl)-methyl [1,1′-biphenyl]-2-ylcarbamate], the Ki turned out to be 752 nM.

Regarding `Cc1cccc(-c2ccccc2NC(=O)OC[C@H]2CCCN2C)c1` [Example 110, (R)-(1-methylpyrrolidin-2-yl)-methyl (3′-methyl-[1,1′-biphenyl]-2-yl)carbamate], the Ki was 9.13 nM. For the compound `Cc1cccc(-c2cc(F)ccc2NC(=O)OC[C@H]2CCCN2C)c1` [Example 111, (R)-(1-methylpyrrolidin-2-yl)-methyl (5-fluoro-3′-methyl-[1,1′-biphenyl]-2-yl)carbamate], the Ki worked out at 10.8 nM. In the case of `CN1CC[C@@H](COC(=O)Nc2ccccc2-c2cccc(F)c2)C1` [Example 113, (R)-(1-methylpyrrolidin-3-yl)-methyl (3′-fluoro-[1,1′-biphenyl]-2-yl)carbamate] it was 1.92 nM; in that of `CN1CC[C@H](COC(=O)Nc2ccccc2-c2cc(Cl)cc(Cl)c2)C1` [Example 119, (S)-(1-methylpyrrolidin-3-yl)methyl(3′,5′-dichloro-[1,1′-biphenyl]-2-yl)carbamate], 42.3 nM. `Cc1cc(C)cc(-c2cc(F)ccc2NC(=O)OC[C@H]2CCN(C)C2)c1` [Example 122, (S)-(1-methylpyrrolidin-3-yl)methyl(5-fluoro-3′,5′-dimethyl-[1,1′-biphenyl]-2-yl)carbamate]: the Ki worked out at 87.8 nM. In the case of `CN1CC[C@H](COC(=O)Nc2ccc(F)cc2-c2cc(O)cc(Cl)c2)C1` [Example 123, (S)-(1-methylpyrrolidin-3-yl)methyl(3′-chloro-5-fluoro-5′-hydroxy-[1,1′-biphenyl]-2-yl)carbamate] it was 52.8 nM; in that of `CN1CC[C@H](COC(=O)Nc2ccc(F)cc2-c2ccc(Cl)cc2)C1` [Example 127, (S)-(1-methylpyrrolidin-3-yl)methyl(4′-chloro-5-fluoro-[1,1′-biphenyl]-2-yl)carbamate], 69.4 nM; in that of `CN1CC[C@@H](COC(=O)Nc2ccc(F)cc2-c2cccc(N)c2)C1` [Example 133, (R)-(1-methylpyrrolidin-3-yl)methyl(5-fluoro-3′-amino-[1,1′-biphenyl]-2-yl)carbamate], 34.5 nM. In the case of `CN1CC[C@@H](COC(=O)Nc2ccc(F)cc2-c2cc(O)cc(Cl)c2)C1` [Example 134, (R)-(1-methylpyrrolidin-3-yl)methyl(3′-chloro-5-fluoro-5′-hydroxy-[1,1′-biphenyl]-2-yl)carbamate] it was 46.9 nM; in that of `CN1CC[C@@H](COC(=O)Nc2ccccc2-c2cccc(O)c2)C1` [Example 137, (R)-(1-methylpyrrolidin-3-yl)methyl(3′-hydroxy-[1,1′-biphenyl]-2-yl)carbamate], 27 nM.
